This note sets out measurements from patent US11612604B2, “Methods of treating cancer with PLK4 inhibitors” (LUDWIG INSTITUTE FOR CANCER RESEARCH LTD, priority 2017, dated 2023).

For this test, the target named is T1, PLK4 (Homo sapiens, UniProt O00444).
T1 sequence (O00444 1-970): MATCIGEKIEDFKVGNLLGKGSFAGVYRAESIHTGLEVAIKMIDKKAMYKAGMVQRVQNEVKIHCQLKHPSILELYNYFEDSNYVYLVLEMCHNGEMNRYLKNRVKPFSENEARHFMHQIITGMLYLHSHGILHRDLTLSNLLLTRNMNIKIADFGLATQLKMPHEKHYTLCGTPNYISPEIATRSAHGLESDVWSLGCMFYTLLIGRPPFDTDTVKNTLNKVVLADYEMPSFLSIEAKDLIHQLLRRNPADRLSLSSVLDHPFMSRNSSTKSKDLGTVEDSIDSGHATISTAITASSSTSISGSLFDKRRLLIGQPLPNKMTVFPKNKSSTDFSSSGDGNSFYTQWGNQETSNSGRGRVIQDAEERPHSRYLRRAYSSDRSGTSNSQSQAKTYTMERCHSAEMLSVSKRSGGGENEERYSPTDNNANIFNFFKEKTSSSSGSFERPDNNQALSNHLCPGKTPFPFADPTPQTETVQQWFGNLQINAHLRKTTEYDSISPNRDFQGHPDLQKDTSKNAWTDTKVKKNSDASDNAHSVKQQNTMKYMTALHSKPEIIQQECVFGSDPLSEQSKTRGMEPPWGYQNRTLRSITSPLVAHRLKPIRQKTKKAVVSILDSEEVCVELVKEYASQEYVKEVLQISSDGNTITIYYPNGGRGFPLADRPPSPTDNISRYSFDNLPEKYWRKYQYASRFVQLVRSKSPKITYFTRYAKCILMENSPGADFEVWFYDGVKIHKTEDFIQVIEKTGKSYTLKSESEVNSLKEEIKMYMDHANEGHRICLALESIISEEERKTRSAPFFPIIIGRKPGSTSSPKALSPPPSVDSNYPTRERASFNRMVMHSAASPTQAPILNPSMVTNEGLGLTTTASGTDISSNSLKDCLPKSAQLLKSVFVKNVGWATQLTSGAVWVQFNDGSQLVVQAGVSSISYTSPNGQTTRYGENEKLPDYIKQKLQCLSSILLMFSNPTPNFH
Briefly: Activity (IC50) of the Table 1 compounds as PLK4 inhibitors. Type of test: biochemical. Conditions: Table 1, IC50 class.
As for `COc1c(Nc2cc(C)[nH]n2)nc(Sc2ccc(NC(=O)C3CC3)cc2)nc1N1CCN(C)CC1`, the IC50 is less than 100 nM.

`Cc1cc(Nc2nc(Sc3ccc(NC(=O)C4CC4)cc3)nc(N3CCOCC3)c2C)n[nH]1` showed a half-maximal inhibitory concentration (IC50) of less than 100 nM.

Compound `COc1c(C)nc(Sc2ccc(NC(=O)C3CC3)cc2)nc1Nc1cc(C)[nH]n1` returned a 50% inhibitory concentration (IC50) of less than 100 nM.

`Cc1cc(Nc2nc(Sc3ccc(NC(=O)C4CC4)cc3)nc3c2C(C)CC3)n[nH]1` (stereo not shown) had an IC50 of less than 100 nM.

For the compound `Cc1cc(Nc2nc(Sc3ccc(NC(=O)C4CC4)cc3)nc(N3CCN(C(C)C)CC3)c2C)n[nH]1`, the half-maximal inhibitory concentration (IC50) was less than 100 nM.

Take `CC(=O)N1CCN(c2nc(Sc3ccc(NC(=O)C4CC4)cc3)nc(Nc3cc(C)[nH]n3)c2C)CC1`: the IC50 was less than 100 nM.

Regarding `COCCN1CCN(c2nc(Sc3ccc(NC(=O)C4CC4)cc3)nc(Nc3cc(C)[nH]n3)c2C)CC1`, the IC50 is less than 100 nM.

Regarding `Cc1cc(Nc2nc(Sc3ccc(NC(=O)C4CC4)cc3)nc(N3CCN(C)C(C)C3)c2C)n[nH]1` (stereo not shown), the IC50 is less than 100 nM.

In turn, `COc1c(Nc2cc(C)[nH]n2)nc(Sc2ccc(NC(=O)C3CCCC3)cc2)nc1N1CCN(C(C)=O)CC1` displayed an IC50 of less than 100 nM.

As to `COCCN1CCN(c2nc(Sc3ccc(NC(=O)C4CCCC4)cc3)nc(Nc3cc(C)[nH]n3)c2OC)CC1`, the IC50 was less than 100 nM.

As to `CCOc1c(Nc2cc(C)[nH]n2)nc(Sc2ccc(NC(=O)C3CC3)cc2)nc1N1CCOCC1`, the IC50 is less than 100 nM.

With `COc1c(Nc2cc(C)[nH]n2)nc(Sc2ccc(NC(=O)C3CCCC3)cc2)nc1N1CCN(C)CC1`, the 50% inhibitory concentration (IC50) was less than 100 nM.

`COc1c(Nc2cc(C)[nH]n2)nc(Sc2ccc(NC(=O)C3CCCC3)cc2)nc1N1CCNCC1` registered an IC50 of less than 100 nM.

Regarding `COc1c(Nc2cc(C)[nH]n2)nc(Sc2ccc(NC(=O)C3CCCC3)cc2)nc1N1CCN(CCN(C)C)CC1`, the IC50 is less than 100 nM.

`CCOc1c(Nc2cc(C)[nH]n2)nc(Sc2ccc(NC(=O)C3CC3)cc2)nc1N1CCNCC1` registered an IC50 of less than 100 nM.

In turn, `CCOc1c(Nc2cc(C)[nH]n2)nc(Sc2ccc(NC(=O)C3CC3)cc2)nc1N(CC)CC` had an IC50 of less than 100 nM.

Take `CCOc1c(Nc2cc(C)[nH]n2)nc(Sc2ccc(NC(=O)C3CC3)cc2)nc1N(C)CC`: the half-inhibitory concentration (IC50) was less than 100 nM.

Compound `CCOc1c(Nc2cc(C)[nH]n2)nc(Sc2ccc(NC(=O)C3CC3)cc2)nc1N(C)C` had an IC50 of less than 100 nM.

`COc1c(Nc2cc(C)[nH]n2)nc(Sc2ccc(NC(=O)C3CC3)cc2)nc1N1CCN(C2CCN(C)CC2)CC1` showed an IC50 of less than 100 nM.

Compound `COc1c(Nc2cc(C)[nH]n2)nc(Sc2ccc(NC(=O)C3CC3)cc2)nc1N1CCC(C(=O)CN(C)C)CC1` gave an IC50 of less than 100 nM.

Turning to `COc1c(Nc2cc(C)[nH]n2)nc(Sc2ccc(NC(=O)C3CC3)cc2)nc1N1CCN(C(=O)CCN(C)C)CC1`, the IC50 was less than 100 nM.

`COCC(=O)N1CCN(c2nc(Sc3ccc(NC(=O)C4CC4)cc3)nc(Nc3cc(C)[nH]n3)c2OC)CC1` gave an IC50 of less than 100 nM.

For `COCCC(=O)N1CCN(c2nc(Sc3ccc(NC(=O)C4CC4)cc3)nc(Nc3cc(C)[nH]n3)c2OC)CC1`, the IC50 is less than 100 nM.

With `COc1c(Nc2cc(C)[nH]n2)nc(Sc2ccc(NC(=O)C3CC3)cc2)nc1N1CCN(CC2CC2)CC1`, the IC50 is less than 100 nM.

With `CNCCN1CCN(c2nc(Sc3ccc(NC(=O)C4CC4)cc3)nc(Nc3cc(C)[nH]n3)c2OC)CC1`, the half-inhibitory concentration (IC50) was less than 100 nM.

Regarding `CCC1CCc2nc(Sc3ccc(NC(=O)C4CC4)cc3)nc(Nc3cc(C)[nH]n3)c21` (stereo not shown), the IC50 was less than 100 nM.

On to `Cc1cc(Nc2nc(Sc3ccc(NC(=O)C4CCC4)cc3)nc(N3CCN(C)CC3)c2C)n[nH]1`, for which the half-inhibitory concentration (IC50) is less than 100 nM.

The compound `CC(=O)Nc1ccc(Sc2nc(Nc3cc(C)[nH]n3)c(C)c(N3CCN(C)CC3)n2)cc1` showed an IC50 of less than 100 nM.

For the compound `CCOc1c(Nc2c[nH]c(C)c2)nc(Sc2ccc(NC(=O)C3CCCC3)cc2)nc1N1CCN(C(=O)CCOC)CC1`, the half-maximal inhibitory concentration (IC50) lay in the range of 100 to 1000 nM.

The compound `CC(=O)Nc1ccc(Sc2nc(Nc3cc(C)[nH]n3)c(C)c(N3CCN(CCN(C)C)CC3)n2)cc1` showed an IC50 of less than 100 nM.

Compound `COCCN1CCN(c2nc(Sc3ccc(NC(C)=O)cc3)nc(Nc3cc(C)[nH]n3)c2C)CC1` showed an IC50 of less than 100 nM.

As to `CC(=O)Nc1ccc(Sc2nc(Nc3cc(C)[nH]n3)c(C)c(N3CCN(C(C)=O)CC3)n2)cc1`, the half-inhibitory concentration (IC50) is less than 100 nM.

Regarding `CC(=O)Nc1ccc(Sc2nc(Nc3cc(C)[nH]n3)c(C)c(N3CCNCC3)n2)cc1`, the concentration for half-maximal inhibition (IC50) is less than 100 nM.

`CC(=O)Nc1ccc(Sc2nc(Nc3cc(C)[nH]n3)c(C)c(N3CCOCC3)n2)cc1` registered a half-inhibitory concentration (IC50) of less than 100 nM.

Regarding `CC(=O)Nc1ccc(Sc2nc(Nc3cc(C)[nH]n3)c(C)c(N3CCN(C4CCN(C)CC4)CC3)n2)cc1`, the IC50 is less than 100 nM.

In the case of `Cc1cc(Nc2nc(Sc3ccc(NC(=O)C4CCCC4)cc3)nc(N3CCN(CCN(C)C)CC3)c2C)n[nH]1`, the IC50 was less than 100 nM.

`COCCN1CCN(c2nc(Sc3ccc(NC(=O)C4CCCC4)cc3)nc(Nc3cc(C)[nH]n3)c2C)CC1`: the IC50 is less than 100 nM.

Compound `CC(=O)N1CCN(c2nc(Sc3ccc(NC(=O)C4CCCC4)cc3)nc(Nc3cc(C)[nH]n3)c2C)CC1` returned an IC50 of less than 100 nM.

In the case of `Cc1cc(Nc2nc(Sc3ccc(NC(=O)C4CCCC4)cc3)nc(N3CCNCC3)c2C)n[nH]1`, the IC50 was less than 100 nM.

`Cc1cc(Nc2nc(Sc3ccc(NC(=O)C4CCCC4)cc3)nc(N3CCOCC3)c2C)n[nH]1` returned an IC50 of less than 100 nM.

Consider `Cc1cc(Nc2nc(Sc3ccc(NC(=O)C4CCCC4)cc3)nc(N3CCN(C4CCN(C)CC4)CC3)c2C)n[nH]1`, for which the IC50 is less than 100 nM.

For the compound `COc1c(Nc2cc(C)[nH]n2)nc(Sc2ccc(NC(C)=O)cc2)nc1N1CCCCC1`, the IC50 was less than 100 nM.

In turn, `CC(=O)Nc1ccc(Sc2nc(Nc3cc(C)[nH]n3)c(C)c(N(C)C(C)C)n2)cc1` gave an IC50 of less than 100 nM.

In the case of `CC(=O)Nc1ccc(Sc2nc(Nc3cc(C)[nH]n3)c(C)c(N3CCN(C(=O)CCN(C)C)CC3)n2)cc1`, the half-maximal inhibitory concentration (IC50) is less than 100 nM.

With `COCC(=O)N1CCN(c2nc(Sc3ccc(NC(C)=O)cc3)nc(Nc3cc(C)[nH]n3)c2C)CC1`, the IC50 is less than 100 nM.

In the case of `Cc1cc(Nc2nc(Sc3ccc(NC(=O)C4CCCC4)cc3)nc(N(C)C(C)C)c2C)n[nH]1`, the IC50 was less than 100 nM.

`COCC(=O)N1CCN(c2nc(Sc3ccc(NC(=O)C4CCCC4)cc3)nc(Nc3cc(C)[nH]n3)c2C)CC1` registered a half-maximal inhibitory concentration (IC50) of less than 100 nM.

`Cc1cc(Nc2nc(Sc3ccc(NC(=O)C4CCCC4)cc3)nc(N3CCCCC3)c2C)n[nH]1`: the IC50 was less than 100 nM.

As for `CCN(C)c1nc(Sc2ccc(NC(=O)C3CCCC3)cc2)nc(Nc2cc(C)[nH]n2)c1C`, the IC50 is less than 100 nM.

Compound `Cc1cc(Nc2nc(Sc3ccc(NC(=O)C4CCCC4)cc3)nc(N(C)C)c2C)n[nH]1` returned an IC50 of less than 100 nM.

For `CC(=O)Nc1ccc(Sc2nc(Nc3cc(C)[nH]n3)c(C)c(N3CCC(O)CC3)n2)cc1`, the IC50 is less than 100 nM.

`CC(=O)Nc1ccc(Sc2nc(Nc3cc(C)[nH]n3)c(C)c(N3CCCC3)n2)cc1` had an IC50 of less than 100 nM.

`CC(=O)Nc1ccc(Sc2nc(Nc3cc(C)[nH]n3)c(C)c(N3CCCCCC3)n2)cc1` yielded an IC50 of less than 100 nM.

For the compound `CC(=O)Nc1ccc(Sc2nc(Nc3cc(C)[nH]n3)c(C)c(N3CC=CCC3)n2)cc1`, the IC50 was less than 100 nM.

With `CC(=O)Nc1ccc(Sc2nc(Nc3cc(C)[nH]n3)c(C)c(N3CC=C(F)CC3)n2)cc1`, the IC50 was less than 100 nM.

Compound `CC(=O)Nc1ccc(Sc2nc(Nc3cc(C)[nH]n3)c(C)c(N3CCC(C)CC3)n2)cc1` showed an IC50 of less than 100 nM.

Turning to `CC(=O)Nc1ccc(Sc2nc(Nc3cc(C)[nH]n3)c(Cl)c(N3CCN(C)CC3)n2)cc1`, the concentration for half-maximal inhibition (IC50) is less than 100 nM.

The compound `CSc1nc(Nc2cc(C)[nH]n2)c(Cl)c(N2CCCCC2)n1` displayed an IC50 of less than 100 nM.

`Cc1cc(Nc2nc(Sc3ccccc3)nc(N3CCCCC3)c2C)n[nH]1`: the IC50 was less than 100 nM.

The compound `Cc1ccc(Sc2nc(Nc3cc(C)[nH]n3)c(C)c(N3CCCCC3)n2)cc1` yielded an IC50 of less than 100 nM.

For the compound `Cc1cc(Nc2nc(Sc3ccc(N)cc3)nc(N3CCCCC3)c2C)n[nH]1`, the IC50 is less than 100 nM.

The compound `COc1c(Nc2cc(C)[nH]n2)nc(Sc2ccc(S(=O)(=O)Cc3cc(F)ccc3F)cc2)nc1N1CCN(CCN(C)C)CC1` yielded a 50% inhibitory concentration (IC50) of less than 100 nM.

`COc1c(Nc2cc(C)[nH]n2)nc(Sc2ccc(S(=O)(=O)Cc3cccc(-c4ccccc4)c3)cc2)nc1N1CCN(CCN(C)C)CC1` yielded a half-inhibitory concentration (IC50) of less than 100 nM.

Compound `COc1c(Nc2cc(C)[nH]n2)nc(Sc2ccc(S(=O)(=O)Cc3cccc(C(C)=O)c3)cc2)nc1N1CCN(CCN(C)C)CC1` returned an IC50 of less than 100 nM.

Compound `COc1c(Nc2cc(C)[nH]n2)nc(Sc2ccc(S(=O)(=O)Cc3cccc([N+](=O)[O-])c3)cc2)nc1N1CCOCC1` showed a concentration for half-maximal inhibition (IC50) of less than 100 nM.

In turn, `COc1c(Nc2cc(C)[nH]n2)nc(Sc2ccc(S(=O)(=O)Cc3ccccc3)cc2)nc1N1CCN(Cc2ccccc2)CC1` showed an IC50 of less than 100 nM.

`COc1c(Nc2cc(C)[nH]n2)nc(Sc2ccc(S(=O)(=O)Cc3ccccc3)cc2F)nc1N1CCN(CCN(C)C)CC1` had an IC50 of less than 100 nM.

Broadly, the IC50 is the point on the concentration scale where inhibition reaches its midpoint.
